Measured values as given in ChEMBL document CHEMBL1201862, “PubChem BioAssay data set” (2004).
Active and inactive are the calls of the source.

Experiments:
[1] = target: Troponin, cardiac muscle (Homo sapiens, UniProt P19429+P45379+P63316); test: Fluorescence-based biochemical high throughput dose response assay for activators of the calcium sensitivity of cardiac Regulated Thin Filaments (RTF). [Related pubchem assays (depositor defined):AID493008, AID493018, AID504382, AID504383]; assay type: protein-complex assay
[2] = target: G-protein coupled receptor 55 (Homo sapiens, UniProt Q9Y2T6); test: GPR55 antagonists blocking LPI-driven arrestin recruitment, primary screen, imaging, U2OS, beta-arrestin-GFP, LPI agonist (AID 2013); assay type: functional;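 further: antagonist potency measured as reduced agonist-driven arrestin aggregation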
G-protein coupled receptor 55, sequence (Q9Y2T6 whole entry): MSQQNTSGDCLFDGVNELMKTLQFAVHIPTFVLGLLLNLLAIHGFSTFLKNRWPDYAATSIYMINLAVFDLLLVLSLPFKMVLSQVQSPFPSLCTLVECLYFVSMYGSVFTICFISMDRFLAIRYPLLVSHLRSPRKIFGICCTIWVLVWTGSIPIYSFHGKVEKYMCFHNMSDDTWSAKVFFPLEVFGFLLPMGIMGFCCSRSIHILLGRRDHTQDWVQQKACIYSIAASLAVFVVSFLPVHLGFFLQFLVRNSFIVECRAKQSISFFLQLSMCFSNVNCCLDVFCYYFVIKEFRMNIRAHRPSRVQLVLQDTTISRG

[3] = target: T1, DNA dC->dU-editing enzyme APOBEC-3A (Homo sapiens, UniProt P31941); test: APOBEC3A DNA deaminase inhibitors, dose response, biochemical (AID 504722); assay type: functional
T1 sequence (P31941 whole entry): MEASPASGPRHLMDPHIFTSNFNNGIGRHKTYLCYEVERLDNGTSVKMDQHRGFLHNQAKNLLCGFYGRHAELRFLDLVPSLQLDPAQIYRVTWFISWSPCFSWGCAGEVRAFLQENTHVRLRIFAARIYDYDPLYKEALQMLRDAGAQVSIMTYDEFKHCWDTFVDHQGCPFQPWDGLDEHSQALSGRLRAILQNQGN

[4] = target: Eukaryotic translation initiation factor 4E (Mus musculus, UniProt P63073); test: eIF4E–eIF4G protein interaction inhibitors, dose response, biochemical, TR-FRET (AID 855); assay type: functional;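 further: potency for disrupting eIF4E binding to eIF4GI seen as loss of FRET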
Eukaryotic translation initiation factor 4E, sequence (P63073 whole entry): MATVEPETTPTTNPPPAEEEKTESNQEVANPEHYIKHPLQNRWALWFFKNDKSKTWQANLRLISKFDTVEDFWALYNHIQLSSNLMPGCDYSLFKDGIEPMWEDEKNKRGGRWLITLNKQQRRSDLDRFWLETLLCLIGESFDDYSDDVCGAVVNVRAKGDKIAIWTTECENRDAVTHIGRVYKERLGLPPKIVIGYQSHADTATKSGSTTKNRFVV

[5] = Counterscreen for IDE inhibitors: Luminescence-based cell-based high throughput dose response assay to identify compounds that are cytotoxic to HEK cells. [Related pubchem assays: 434962 (Primary screen (IDE inhibitors in singlicate)), 449730 (Counterscreen (Cytotoxicity in triplicate)), 435028 (Confirmation (IDE inhibitors in triplicate)) …; assay type: functional; settings: HEK293
[6] = test system: Streptococcus; test: Group A Streptococcus viability loss, dose response, counter-screen for streptokinase expression inhibitor project, luminescence, BacTiterGlo (AID 1915); assay type: functional, organism-based;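 further: potency for reduction of bacterial viability or growth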
[7] = target: T2, Phosphomannomutase 2 (Homo sapiens, UniProt O15305); test: Counter screen SAR assay for PMM2 inhibitors via a fluorescence intensity assay. [Related pubchem assays (depositor defined):AID1545, AID1574]
T2 sequence (O15305 whole entry): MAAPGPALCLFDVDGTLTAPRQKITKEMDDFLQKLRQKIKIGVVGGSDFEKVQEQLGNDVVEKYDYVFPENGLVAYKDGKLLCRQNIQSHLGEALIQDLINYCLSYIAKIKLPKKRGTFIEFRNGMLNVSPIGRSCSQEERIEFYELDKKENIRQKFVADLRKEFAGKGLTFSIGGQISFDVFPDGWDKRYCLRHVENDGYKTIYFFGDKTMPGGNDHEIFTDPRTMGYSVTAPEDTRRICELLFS

[8] = target: Insulin-degrading enzyme (Homo sapiens, UniProt P14735); test: Dose Response: Fluorescence polarization-based cell-based high throughput dose response assay for inhibitors of insulin-degrading enzyme (IDE). [Related pubchem assays: 434962 (Primary screen (IDE inhibitors in singlicate)), 449730 (Counterscreen (Cytotoxicity in triplicate)), 435028 (Confirmation (IDE inhibitors in triplicate)), 434984 (Summary …; assay type: functional
Insulin-degrading enzyme, sequence (P14735 whole entry): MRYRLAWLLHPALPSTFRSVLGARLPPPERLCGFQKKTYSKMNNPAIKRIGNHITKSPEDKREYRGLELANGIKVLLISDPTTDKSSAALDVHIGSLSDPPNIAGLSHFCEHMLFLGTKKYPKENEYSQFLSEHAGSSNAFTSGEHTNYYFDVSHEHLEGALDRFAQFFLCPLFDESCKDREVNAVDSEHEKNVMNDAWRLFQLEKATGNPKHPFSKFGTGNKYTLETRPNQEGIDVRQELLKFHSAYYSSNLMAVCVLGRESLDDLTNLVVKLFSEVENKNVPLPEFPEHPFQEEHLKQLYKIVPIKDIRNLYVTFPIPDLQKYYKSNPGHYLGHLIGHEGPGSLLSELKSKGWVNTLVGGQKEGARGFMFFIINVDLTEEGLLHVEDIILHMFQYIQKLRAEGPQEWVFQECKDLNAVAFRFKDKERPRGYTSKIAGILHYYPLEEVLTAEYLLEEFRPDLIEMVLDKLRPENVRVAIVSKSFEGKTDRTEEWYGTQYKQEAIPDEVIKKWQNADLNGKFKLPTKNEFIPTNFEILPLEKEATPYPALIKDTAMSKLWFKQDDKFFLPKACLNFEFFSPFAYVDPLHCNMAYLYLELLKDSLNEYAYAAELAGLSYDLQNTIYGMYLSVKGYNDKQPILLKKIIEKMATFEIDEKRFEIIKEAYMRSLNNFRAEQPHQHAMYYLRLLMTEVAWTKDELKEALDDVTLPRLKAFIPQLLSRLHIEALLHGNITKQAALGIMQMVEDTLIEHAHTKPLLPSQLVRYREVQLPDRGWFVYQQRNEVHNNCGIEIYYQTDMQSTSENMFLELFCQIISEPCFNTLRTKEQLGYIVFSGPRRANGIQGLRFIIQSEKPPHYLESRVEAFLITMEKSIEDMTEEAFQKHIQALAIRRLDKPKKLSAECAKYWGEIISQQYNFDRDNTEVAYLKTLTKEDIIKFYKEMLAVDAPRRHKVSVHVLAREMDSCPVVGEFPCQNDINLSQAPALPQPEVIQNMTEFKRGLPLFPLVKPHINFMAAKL

[9] = target: T3, DNA dC->dU-editing enzyme APOBEC-3G (Homo sapiens, UniProt Q9HC16); test: Dose Response confirmation of small molecule APOBEC3G DNA Deaminase Inhibitors via a fluorescence-based single-stranded DNA deaminase assay. [Related pubchem assays (depositor defined):AID493012, AID493028]; assay type: functional
T3 sequence (Q9HC16 whole entry): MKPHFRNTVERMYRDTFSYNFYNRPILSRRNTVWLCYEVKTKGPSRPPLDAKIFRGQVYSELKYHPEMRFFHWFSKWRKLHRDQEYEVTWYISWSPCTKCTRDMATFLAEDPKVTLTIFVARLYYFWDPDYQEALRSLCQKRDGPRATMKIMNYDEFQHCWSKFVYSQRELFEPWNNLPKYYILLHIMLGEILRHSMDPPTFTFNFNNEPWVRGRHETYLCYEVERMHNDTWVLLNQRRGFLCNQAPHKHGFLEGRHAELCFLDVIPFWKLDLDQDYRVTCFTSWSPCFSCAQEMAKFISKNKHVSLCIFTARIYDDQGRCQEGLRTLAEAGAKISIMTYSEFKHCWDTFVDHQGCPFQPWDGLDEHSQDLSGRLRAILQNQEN

[10] = target: T4, Streptokinase A (Streptococcus pyogenes serotype M1, UniProt P10520); test: S. pyogenes streptokinase expression inhibitors, potency, dose response, plasminogen activation absorbance, OD405 (AID 1914); assay type: functional, Streptococcus pyogenes M1 GAS;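 further: secreted streptokinase activity via plasminogen activation per viability signal from cell pellet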
T4 sequence (P10520 whole entry): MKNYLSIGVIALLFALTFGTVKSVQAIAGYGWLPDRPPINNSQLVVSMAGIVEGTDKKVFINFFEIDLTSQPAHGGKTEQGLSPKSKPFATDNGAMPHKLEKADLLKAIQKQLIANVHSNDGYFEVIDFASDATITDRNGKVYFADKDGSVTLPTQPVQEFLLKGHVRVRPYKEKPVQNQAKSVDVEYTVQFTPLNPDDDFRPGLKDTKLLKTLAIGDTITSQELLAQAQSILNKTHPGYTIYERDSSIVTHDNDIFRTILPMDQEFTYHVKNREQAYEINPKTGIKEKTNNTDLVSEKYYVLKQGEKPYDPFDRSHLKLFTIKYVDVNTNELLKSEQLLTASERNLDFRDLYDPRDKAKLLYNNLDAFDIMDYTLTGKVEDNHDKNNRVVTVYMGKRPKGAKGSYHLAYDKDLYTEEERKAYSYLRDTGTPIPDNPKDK

[11] = target: T5, Mannose-6-phosphate isomerase (Homo sapiens, UniProt P34949); test: PMI enzyme inhibitors, confirmation, biochemical, fluorescence intensity (AID 1535)
T5 sequence (P34949 whole entry): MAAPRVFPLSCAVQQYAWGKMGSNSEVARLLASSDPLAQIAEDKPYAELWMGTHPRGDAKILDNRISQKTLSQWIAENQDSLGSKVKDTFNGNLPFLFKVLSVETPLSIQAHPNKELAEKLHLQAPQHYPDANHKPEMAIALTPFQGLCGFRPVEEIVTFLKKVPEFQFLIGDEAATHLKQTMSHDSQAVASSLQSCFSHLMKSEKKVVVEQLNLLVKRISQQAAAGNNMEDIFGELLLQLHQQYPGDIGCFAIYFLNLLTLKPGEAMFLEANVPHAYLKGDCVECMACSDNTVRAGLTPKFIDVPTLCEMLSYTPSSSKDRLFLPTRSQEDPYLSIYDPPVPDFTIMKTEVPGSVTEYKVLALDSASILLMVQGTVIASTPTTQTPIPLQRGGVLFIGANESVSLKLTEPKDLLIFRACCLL

[12] = test system: Streptococcus sp. 'group A'; test: growth inhibition of control SK(-) GAS strain, dose response, counter-screen for streptokinase expression inhibitor project, luminescence, kanamycin, BacTiterGlo, confirmation (AID 1900); assay type: functional, organism-based
[13] = target: T6, Phosphoethanolamine/phosphocholine phosphatase (Homo sapiens, UniProt Q8TCT1); test: SAR assay for compounds that inhibit PHOSPHO1. [Related pubchem assays (depositor defined):AID1545, AID1565, AID1574]
T6 sequence (Q8TCT1 whole entry): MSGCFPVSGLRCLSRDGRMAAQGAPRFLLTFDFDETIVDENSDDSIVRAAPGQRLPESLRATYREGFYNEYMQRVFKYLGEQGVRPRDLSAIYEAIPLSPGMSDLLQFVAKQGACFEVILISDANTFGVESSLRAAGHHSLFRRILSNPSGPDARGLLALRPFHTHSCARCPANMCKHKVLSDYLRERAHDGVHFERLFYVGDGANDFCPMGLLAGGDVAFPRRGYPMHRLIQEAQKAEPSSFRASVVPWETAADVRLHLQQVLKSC

[14] = target: Large T antigen (Simian virus 40, UniProt P03070); assay type: functional, Betapolyomavirus macacae;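 further: Confirmatory-stage PubChem screen for compounds that inhibit SV40 T antigen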
Large T antigen, sequence (P03070 whole entry): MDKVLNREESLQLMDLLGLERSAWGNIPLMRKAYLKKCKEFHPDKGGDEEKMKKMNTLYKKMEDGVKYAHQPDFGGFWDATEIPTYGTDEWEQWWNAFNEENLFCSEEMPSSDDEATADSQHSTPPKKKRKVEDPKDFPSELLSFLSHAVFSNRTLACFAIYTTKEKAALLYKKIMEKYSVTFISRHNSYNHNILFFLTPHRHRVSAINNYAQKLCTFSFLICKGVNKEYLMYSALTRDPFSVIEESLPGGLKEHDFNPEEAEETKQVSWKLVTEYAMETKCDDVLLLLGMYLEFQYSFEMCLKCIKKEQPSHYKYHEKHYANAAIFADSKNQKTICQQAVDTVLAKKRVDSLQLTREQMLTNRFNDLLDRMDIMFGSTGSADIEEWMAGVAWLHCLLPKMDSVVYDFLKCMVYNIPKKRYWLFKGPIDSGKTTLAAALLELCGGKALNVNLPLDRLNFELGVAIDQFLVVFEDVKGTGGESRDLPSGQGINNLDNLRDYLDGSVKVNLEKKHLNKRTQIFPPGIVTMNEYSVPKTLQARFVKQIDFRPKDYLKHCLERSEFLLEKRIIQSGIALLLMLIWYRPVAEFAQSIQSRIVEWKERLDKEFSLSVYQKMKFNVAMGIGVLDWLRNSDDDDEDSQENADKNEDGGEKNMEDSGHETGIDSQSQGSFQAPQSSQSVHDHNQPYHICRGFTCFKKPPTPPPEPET

[15] = target: Bcl-2-like protein 10 (Homo sapiens, UniProt Q9HD36); test: displacers of TR3 peptide from Bcl-B, primary screen, selectivity assay for Bfl-1 inhibitor project, biochemical, fluorescence polarization, FITC-TR3 peptide (AID 748);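 further: fluorescence polarization from a fluorescein-labelled TR3 peptide binding purified Bcl-B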
Bcl-2-like protein 10, sequence (Q9HD36 whole entry): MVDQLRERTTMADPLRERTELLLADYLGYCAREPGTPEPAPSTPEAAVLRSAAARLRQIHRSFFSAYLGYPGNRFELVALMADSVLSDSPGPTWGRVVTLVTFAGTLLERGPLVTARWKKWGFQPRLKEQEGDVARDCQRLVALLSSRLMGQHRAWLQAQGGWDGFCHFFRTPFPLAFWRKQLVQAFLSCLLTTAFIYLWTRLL

[16] = target: T3, DNA dC->dU-editing enzyme APOBEC-3G; assay type: functional
[17] = target: T1, DNA dC->dU-editing enzyme APOBEC-3A; test: Dose Response confirmation of small molecule APOBEC3A DNA Deaminase Inhibitors via a fluorescence-based single-stranded DNA deaminase assay. [Related pubchem assays (depositor defined):AID493011, AID493024]; assay type: functional
[18] = target: T7, Carboxy-terminal domain RNA polymerase II polypeptide A small phosphatase 1 (Homo sapiens, UniProt Q9GZU7); test: inhibitors of CTDSP1, concentration-response testing, biochemical assay, absorbance-based, actives from ultra-high-throughput screening (AID 540297); assay type: functional
T7 sequence (Q9GZU7 whole entry): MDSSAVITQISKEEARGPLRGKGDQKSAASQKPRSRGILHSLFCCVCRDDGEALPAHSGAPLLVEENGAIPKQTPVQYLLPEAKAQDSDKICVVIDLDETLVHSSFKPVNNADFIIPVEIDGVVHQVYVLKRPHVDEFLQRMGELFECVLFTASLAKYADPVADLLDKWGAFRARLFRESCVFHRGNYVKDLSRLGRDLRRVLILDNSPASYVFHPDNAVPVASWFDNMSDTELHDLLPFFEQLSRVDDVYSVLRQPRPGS

[19] = target: DNA damage-inducible transcript 3 protein (Mus musculus, UniProt P35639); assay type: functional, Cricetulus griseus
DNA damage-inducible transcript 3 protein, sequence (P35639 whole entry): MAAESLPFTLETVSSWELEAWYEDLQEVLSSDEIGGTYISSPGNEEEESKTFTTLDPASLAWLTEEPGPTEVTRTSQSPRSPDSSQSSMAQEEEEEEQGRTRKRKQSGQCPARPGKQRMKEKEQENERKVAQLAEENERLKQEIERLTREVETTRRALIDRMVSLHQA

[20] = target: CAAX prenyl protease 2 (Saccharomyces cerevisiae S288c, UniProt Q03530); assay type: biochemical
CAAX prenyl protease 2, sequence (Q03530 whole entry): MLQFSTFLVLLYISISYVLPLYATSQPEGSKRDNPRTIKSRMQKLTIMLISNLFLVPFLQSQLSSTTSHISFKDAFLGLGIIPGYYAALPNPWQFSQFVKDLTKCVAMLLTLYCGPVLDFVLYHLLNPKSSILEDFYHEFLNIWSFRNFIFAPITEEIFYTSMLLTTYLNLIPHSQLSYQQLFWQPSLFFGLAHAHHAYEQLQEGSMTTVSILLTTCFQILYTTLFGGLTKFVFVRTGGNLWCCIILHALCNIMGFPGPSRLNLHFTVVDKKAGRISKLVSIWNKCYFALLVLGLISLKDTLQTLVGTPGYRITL

## N#C/C(=C\c1c[nH]c2ccccc12)C(=O)Nc1ncc(Cc2ccc(Cl)cc2Cl)s1
[1]
  EC50: > 71.5 µM (inactive)

## COc1ccc(N(CC(=O)Nc2nc3ccc(C)cc3s2)S(=O)(=O)c2c(C)nn(C)c2C)cc1
[2]
  IC50: 2.04 µM (active)

## O=c1c2ccccc2sn1-c1cc(S(=O)(=O)N2CCOCC2)ccc1N1CCOCC1
[3]
  IC50: > 100 µM (inactive)
[4]
  IC50: 5.36 µM (active)
[5]
  IC50: 11 µM (not active)
[6]
  EC50: > 150 µM (not active)
[7]
  IC50: 9.87 µM (active)
[8]
  IC50: 1.44 µM (active)
[9]
  IC50: 14 µM (active)
[10]
  EC50: > 150 µM (not active)
[11]
  IC50: 2.6 µM (active)
[12]
  EC50: 10.2 µM (active)
[13]
  IC50: 1.27 µM (inactive)
[14]
  IC50: 13.2 µM (active)

## O=C(COC(=O)C1CCN(S(=O)(=O)c2cc([N+](=O)[O-])ccc2Cl)CC1)Nc1ncc(Cl)cc1Cl
[15]
  IC50: 3.81 µM (active)
[16]
  IC50: 36.3 µM (active)
[17]
  IC50: 17.9 µM (active)
[18]
  IC50: 4.29 µM (active)

## NC(=O)CC(NC(=O)Cc1cccc2ccccc12)c1ccc(NCc2cc(F)ccc2F)c([N+](=O)[O-])c1 (stereo not given)
[19]
  Absolute IC50 (CHOP): 10 µM

## COc1ccc(NS(=O)(=O)c2ccc3oc(=O)c4[nH]c(=O)c(=O)n(C)c4c3c2)cc1
[20]
  AC50: 22.7 µM (active)
